Laboratory results published in ChEMBL document CHEMBL1201862, “PubChem BioAssay data set” (2004).
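Interpolation was linear, between the two tested concentrations surrounding the appropriate level; five concentrations were tested over 48 hours in 96-well plates. The concentration for 50% growth inhibition is given as GI50.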 Active and inactive are the calls of the source. No stated cut-off is given here; in the data, active = GI50 up to about 1.1 µM and inactive = higher.

Columns and labels:
Test in all cases: inhibition of tumour cell growth, NCI panel, 48 h
SF-295 = tested on: SF-295
HT-29 = tested on: HT-29
CAKI-1 = tested on: CAKI-1
MOLT-4 = tested on: MOLT-4
LXFL 529 = tested on: LXFL 529
LOX IMVI = tested on: LOX IMVI
TK-10 = tested on: TK-10
HOP-18 = tested on: HOP-18
SK-OV-3 = tested on: SK-OV-3
SNB-78 = tested on: SNB-78
IGROV-1 = tested on: IGROV-1
KM12 = tested on: KM12
NCI-H226 = tested on: NCI-H226
HOP-92 = tested on: HOP-92
ACHN = tested on: ACHN
DMS-114 = tested on: DMS-114
CCRF-CEM = tested on: CCRF-CEM
HL-60 = tested on: HL-60
A549 = tested on: A549
SK-MEL-28 = tested on: SK-MEL-28
OVCAR-4 = tested on: OVCAR-4
UACC-257 = tested on: UACC-257
SF-539 = tested on: SF-539
NCI-H23 = tested on: NCI-H23
UO-31 = tested on: UO-31
SK-MEL-2 = tested on: SK-MEL-2
A498 = tested on: A498
SNB-19 = tested on: SNB-19
EKVX = tested on: EKVX
OVCAR-5 = tested on: OVCAR-5
M14 = tested on: M14
DLD-1 = tested on: DLD-1
UACC-62 = tested on: UACC-62
HOP-62 = tested on: HOP-62
DMS-273 = tested on: DMS-273
RPMI-8226 = tested on: RPMI-8226
RXF 393 = tested on: RXF 393
K562 = tested on: K562
OVCAR-8 = tested on: OVCAR-8
SNB-75 = tested on: SNB-75
SR = tested on: SR
SN12C = tested on: SN12C
KM-20L2 = tested on: KM-20L2
Malme-3M = tested on: Malme-3M
SF-268 = tested on: SF-268
NCI-H460 = tested on: NCI-H460
NCI-H522 = tested on: NCI-H522
HCT-15 = tested on: HCT-15
SW-620 = tested on: SW-620
XF498 = tested on: XF498
HCC 2998 = tested on: HCC 2998
U-251 = tested on: U-251
786-0 = tested on: 786-0
HCT-116 = tested on: HCT-116

CC(=O)O/N=C(Cl)/C(Cl)=N/OC(C)=O
GI50 (SF-295): > 100 µM (inactive) | GI50 (HT-29): > 100 µM (inactive) | GI50 (CAKI-1): > 100 µM (inactive) | GI50 (MOLT-4): > 100 µM (inactive) | GI50 (LXFL 529): > 100 µM (inactive) | GI50 (LOX IMVI): > 100 µM (inactive) | GI50 (TK-10): > 100 µM (inactive) | GI50 (HOP-18): > 100 µM (inactive) | GI50 (SK-OV-3): > 100 µM (inactive) | GI50 (SNB-78): > 100 µM (inactive) | GI50 (IGROV-1): > 100 µM (inactive) | GI50 (KM12): > 100 µM (inactive) | GI50 (NCI-H226): > 100 µM (inactive) | GI50 (HOP-92): > 100 µM (inactive) | GI50 (ACHN): > 100 µM (inactive) | GI50 (DMS-114): > 100 µM (inactive) | GI50 (CCRF-CEM): > 100 µM (inactive) | GI50 (HL-60): > 100 µM (inactive) | GI50 (A549): > 100 µM (inactive) | GI50 (SK-MEL-28): > 100 µM (inactive) | GI50 (OVCAR-4): > 100 µM (inactive) | GI50 (UACC-257): > 100 µM (inactive) | GI50 (SF-539): > 100 µM (inactive) | GI50 (NCI-H23): > 100 µM (inactive) | GI50 (UO-31): > 100 µM (inactive) | GI50 (SK-MEL-2): > 100 µM (inactive) | GI50 (A498): > 100 µM (inactive) | GI50 (SNB-19): > 100 µM (inactive) | GI50 (EKVX): > 100 µM (inactive) | GI50 (OVCAR-5): > 100 µM (inactive) | GI50 (M14): > 100 µM (inactive) | GI50 (DLD-1): > 100 µM (inactive) | GI50 (UACC-62): > 100 µM (inactive) | GI50 (HOP-62): > 100 µM (inactive) | GI50 (DMS-273): > 100 µM (inactive) | GI50 (RPMI-8226): > 100 µM (inactive) | GI50 (RXF 393): > 100 µM (inactive) | GI50 (K562): > 100 µM (inactive) | GI50 (OVCAR-8): > 100 µM (inactive) | GI50 (SNB-75): > 100 µM (inactive) | GI50 (SR): > 100 µM (inactive) | GI50 (SN12C): > 100 µM (inactive) | GI50 (KM-20L2): > 100 µM (inactive) | GI50 (Malme-3M): > 100 µM (inactive) | GI50 (SF-268): > 100 µM (inactive) | GI50 (NCI-H460): > 100 µM (inactive) | GI50 (NCI-H522): > 100 µM (inactive) | GI50 (HCT-15): > 100 µM | GI50 (SW-620): > 100 µM (inactive) | GI50 (XF498): > 100 µM (inactive) | GI50 (HCC 2998): > 100 µM (inactive) | GI50 (U-251): > 100 µM (inactive) | GI50 (786-0): > 100 µM (inactive) | GI50 (HCT-116): > 100 µM (inactive)
